A compilation of properties of binary mixtures (doi:10.1021/jp5065243)

Assay: xn = mol fraction of the nth substance listed
Conditions: 101 kPa

CCCC[N+](C)(C)C.O=S(=O)([N-]S(=O)(=O)C(F)(F)F)C(F)(F)F + CC(O)C(C)O
x2 = 0
Conditions	viscosity [mPa·s]
323.15 K	35.6
333.15 K	25.7
338.15 K	22.1
343.15 K	19.2

CCCC[N+](C)(C)C.O=S(=O)([N-]S(=O)(=O)C(F)(F)F)C(F)(F)F + CC(O)CO
viscosity [mPa·s]
Conditions	x2 = 0	x2 = 0.132	x2 = 0.1909	x2 = 0.3054	x2 = 0.5274	x2 = 0.7262	x2 = 0.8149	x2 = 0.8843
323.15 K	–	25.2	22.8	19.6	15.85	14.66	12.95	–
328.15 K	30	21.4	–	16.72	13.36	12.33	10.63	9.67
333.15 K	25.7	18.4	16.53	–	11.41	10.46	8.85	8.04
338.15 K	–	15.98	14.01	–	–	8.91	–	6.68
343.15 K	–	13.99	12.36	10.89	8.6	7.59	6.35	5.62
348.15 K	–	12.65	–	9.89	–	6.68	–	4.96
353.15 K	15.63	11.91	10.8	9.3	7.51	6.1	–	4.62

C[N+](C)(C)CCO.O=S(=O)([N-]S(=O)(=O)C(F)(F)F)C(F)(F)F + CC(O)CO
viscosity [mPa·s]
Conditions	313.15 K	318.15 K	323.15 K	328.15 K	333.15 K	338.15 K	343.15 K	348.15 K	353.15 K
x2 = 0	–	46.8	39.3	33.4	–	–	21.6	–	16.9
x2 = 0.2189	37.3	31.1	26.2	22.3	19.2	16.54	–	12.98	11.55
x2 = 0.3834	31.1	26.2	21.7	18.6	15.87	13.73	–	10.65	9.42
x2 = 0.4786	–	–	19.8	16.76	14.37	12.63	10.88	9.6	8.48
x2 = 0.5867	26.7	21.9	18.2	–	13.15	11.34	9.88	8.68	7.67
x2 = 0.7668	22	17.9	14.79	12.4	10.52	9.01	7.78	6.77	5.91
x2 = 0.8744	19.7	15.95	13.08	10.84	9.12	7.72	–	5.69	4.91

CCCC[N+](C)(C)C.O=S(=O)([N-]S(=O)(=O)C(F)(F)F)C(F)(F)F + CCC(O)CO
viscosity [mPa·s]
Conditions	323.15 K	328.15 K	333.15 K	338.15 K	343.15 K	348.15 K	353.15 K
x2 = 0	35.6	–	25.7	22.1	19.2	16.81	15.63
x2 = 0.2291	22.5	19.1	16.35	–	–	10.93	10.09
x2 = 0.3543	19.1	16.13	13.78	–	10.4	9.13	8.39
x2 = 0.5116	16.9	14.18	12.01	10.29	8.9	7.77	–
x2 = 0.6289	–	13.27	11.03	9.35	8.1	–	6.33
x2 = 0.8622	13.55	10.93	8.96	7.44	6.26	5.32	–
x2 = 0.9031	13.23	10.7	8.68	7.12	5.98	5.19	4.58

CC(O)C(C)O (configuration not stated) + CCCC[N+](C)(C)C.O=S(=O)([N-]S(=O)(=O)C(F)(F)F)C(F)(F)F
viscosity [mPa·s]
Conditions	x1 = 0.0879	x1 = 0.3137	x1 = 0.4515	x1 = 0.557	x1 = 0.6216	x1 = 0.8142	x1 = 1
323.15 K	28.8	20.9	18.2	–	–	15.29	17
328.15 K	24.4	17.7	15.32	–	13.26	12.34	13.13
333.15 K	20.9	–	–	–	11.09	10.19	10.34
338.15 K	18.1	13.22	11.32	10	9.39	8.53	8.27
343.15 K	15.83	11.16	9.89	8.68	8.03	7.33	–

CC(O)CO (configuration not stated) + CCCC[N+](C)(C)C.O=S(=O)([N-]S(=O)(=O)C(F)(F)F)C(F)(F)F
x1 = 1
Conditions	viscosity [mPa·s]
323.15 K	12.2
328.15 K	9.85
333.15 K	8
338.15 K	6.41
343.15 K	5.27
348.15 K	4.54

CCC(O)CO (configuration not stated) + CCCC[N+](C)(C)C.O=S(=O)([N-]S(=O)(=O)C(F)(F)F)C(F)(F)F
x1 = 1
Conditions	viscosity [mPa·s]
323.15 K	12.85
333.15 K	8.33
338.15 K	6.83
343.15 K	5.65
348.15 K	4.75
353.15 K	4.03

CC(O)CO (configuration not stated) + C[N+](C)(C)CCO.O=S(=O)([N-]S(=O)(=O)C(F)(F)F)C(F)(F)F
x1 = 1
Conditions	viscosity [mPa·s]
313.15 K	19.1
318.15 K	15.17
323.15 K	12.2
328.15 K	9.85
333.15 K	8
338.15 K	6.4
343.15 K	5.27
348.15 K	4.5
353.15 K	3.78

OCCCCCO + C[N+](C)(C)CCO.O=S(=O)([N-]S(=O)(=O)C(F)(F)F)C(F)(F)F
x1 = 1
Conditions	viscosity [mPa·s]
313.15 K	45.6
318.15 K	36.9
323.15 K	29.8
328.15 K	24.5
338.15 K	16.84
343.15 K	14.44

OCCCO + C[N+](C)(C)CCO.O=S(=O)([N-]S(=O)(=O)C(F)(F)F)C(F)(F)F
x1 = 1
Conditions	viscosity [mPa·s]
313.15 K	20.3
318.15 K	16.88
323.15 K	14.16
328.15 K	12.01
333.15 K	10.24
343.15 K	7.47
348.15 K	6.62
353.15 K	5.8

C[N+](C)(C)CCO.O=S(=O)([N-]S(=O)(=O)C(F)(F)F)C(F)(F)F + OCCCCCO
viscosity [mPa·s]
Conditions	x2 = 0	x2 = 0.1351	x2 = 0.2149	x2 = 0.4145	x2 = 0.5087	x2 = 0.6847	x2 = 0.7858	x2 = 0.9071
313.15 K	56.4	49.5	45.2	38.4	37	36.8	37.8	40.8
318.15 K	46.8	40.8	–	31.4	30.2	29.7	30.3	32.9
323.15 K	–	34.2	–	26.1	24.9	24.3	24.7	26.8
328.15 K	33.4	28.9	–	22	20.9	20.2	20.2	22
333.15 K	28.6	24.7	–	18.7	17.7	17	16.86	18.3
338.15 K	24.6	21.3	19.5	–	15.17	14.44	14.12	15.4
343.15 K	21.6	18.6	17	13.98	13.08	–	11.92	12.99

C[N+](C)(C)CCO.O=S(=O)([N-]S(=O)(=O)C(F)(F)F)C(F)(F)F + OCCCO
viscosity [mPa·s]
Conditions	313.15 K	318.15 K	323.15 K	328.15 K	333.15 K	338.15 K	343.15 K	348.15 K	353.15 K
x2 = 0	56.4	–	39.3	–	28.6	24.6	21.6	–	16.9
x2 = 0.1272	–	39.1	32.8	27.9	–	20.8	18.1	16	14.19
x2 = 0.2297	39.8	33.1	27.9	23.8	–	–	–	13.8	12.29
x2 = 0.4106	–	25.1	21.2	18.1	15.6	13.62	11.96	10.58	9.49
x2 = 0.5712	–	20.8	17.5	14.95	12.87	11.18	9.79	–	7.65
x2 = 0.6946	22.2	18.4	15.47	13.14	–	–	8.51	7.46	6.58
x2 = 0.8367	20.4	16.91	–	–	10.27	8.86	7.74	6.78	–
x2 = 0.9474	19.5	16.22	13.62	11.54	9.86	–	7.36	6.39	5.57
